# Test results from PMC4138103 (PLoS ONE, 2014).
# Where two headings read alike, the source gives them in different places.
# Test system: Sprague-Dawley rats
# Test: Hematology
# Format: in vivo, Rattus norvegicus
# Parameters: HCT, Hematocrit: unit not given here
# Conditions: for Emax: Rattus norvegicus; for Basophils / Eosinophils / HB, Hemoglobin / HCT, Hematocrit / Lymphocytes / MCH, Mean corpuscular hemoglobin / MCHC, Mean corpuscular hemoglobin concentration / MCV, Mean corpuscular volume / MPV, Mean platelet volume / Monocytes / Neutrophils / PDW, Platelet distribution width / PLT, Platelet count / RBC, Red cell count / WBC, Leukocyte total count: group mean
# Method: Basic blood picture analysis was carried out using Advia 120 analyzer (Bayer, later Siemens Diagnostic Division, Dublin, Ireland). This analysis includes red cell count (RBC), hemoglobin (HB), hematocrit (HCT), platelet count (PLT), leukocyte total count (WBC) and differential count as well as the calculated red cell and platelet parameters mean corpuscular volume (MCV), mean corpuscular hemoglobin (MCH), mean corpuscular hemoglobin concentration (MCHC), red cell distribution width - standard deviation (RDW-SD), platelet distribution width (PDW) and mean platelet volume (MPV). Blood cell counting is based on isovolumetric sphering and fixing the cells, stains and light scattering. Visual leukocyte differential counting was done after May-Grünwald-Giemsa staining.
# Data were also analyzed using the BMD method, which is based on dose-response modeling of the full data set using a nested family of exponential and Hill models. The analyses were done on data of males and females combined, using sex as a covariate. […] In that case, different Critical Effect Doses (CEDs) and CEDs at the lowest bound of the confidence interval (CED-L) were generated for each sex. If no difference between sexes is detected, a CED and CED-Ls for the combined data is generated. However, this was also done if the curve fits are close, and separate analyses for males and females were then performed manually. CEDs and CED-Ls were calculated at the predefined Critical Effect Size (CES) of 5% (EFSA standard) or 10%.
# [1] = F, CES 5%, model E2, adipose tissue concentration based
# [2] = F, CES 5%, model E3, adipose tissue concentration based
# [3] = F, CES 10%, model E2, adipose tissue concentration based
# [4] = F, CES 10%, model E3, adipose tissue concentration based
# [5] = M, CES 5%, model E4, adipose tissue concentration based
# [6] = M, CES 10%, model E4, adipose tissue concentration based
# [7] = females, total dose 3 mg/kg bw, N=5
# [8] = females, total dose 10 mg/kg bw, N=5
# [9] = females, total dose 30 mg/kg bw, N=5
# [10] = females, total dose 100 mg/kg bw, N=5
# [11] = females, total dose 300 mg/kg bw, N=5
# [12] = females, total dose 1000 mg/kg bw, N=5
# [13] = females, total dose 1000 mg/kg bw, N=5, p<0.01 vs. control
# [14] = females, total dose 1700 mg/kg bw, N=5
structure (smiles),measurement,setting,value
"Clc1cc(Cl)c(-c2cc(Cl)c(Cl)c(Cl)c2Cl)cc1Cl [PCB 180, 2,2′,3′,4,4′,5,5′-heptachlorobiphenyl]","CED, Hematocrit",[1],5430 µg/g lipid
same,"CED, Hemoglobin",[1],4840 µg/g lipid
same,"CED, Red blood cell count",[1],4170 µg/g lipid
same,"CED-L, Hematocrit",[1],4178 µg/g lipid
same,"CED-L, Hemoglobin",[1],3889 µg/g lipid
same,"CED-L, Red blood cell count",[1],3327 µg/g lipid
same,"CED, Red cell distribution width - SD",[2],8370 µg/g lipid
same,"CED-L, Red cell distribution width - SD",[2],5756 µg/g lipid
same,"CED, Hematocrit",[3],11100 µg/g lipid
same,"CED, Hemoglobin",[3],9930 µg/g lipid
same,"CED, Red blood cell count",[3],8560 µg/g lipid
same,"CED-L, Hematocrit",[3],8582 µg/g lipid
same,"CED-L, Hemoglobin",[3],7989 µg/g lipid
same,"CED-L, Red blood cell count",[3],6834 µg/g lipid
same,"CED, Red cell distribution width - SD",[4],10700 µg/g lipid
same,"CED-L, Red cell distribution width - SD",[4],9281 µg/g lipid
same,"CED, Hematocrit",[5],601 µg/g lipid
same,"CED, Hemoglobin",[5],872 µg/g lipid
same,"CED, Platelet count",[5],156 µg/g lipid
same,"CED, Red blood cell count",[5],598 µg/g lipid
same,"CED-L, Hematocrit",[5],247 µg/g lipid
same,"CED-L, Hemoglobin",[5],227 µg/g lipid
same,"CED-L, Platelet count",[5],36.4 µg/g lipid
same,"CED-L, Red blood cell count",[5],337 µg/g lipid
same,"CED, Hematocrit",[6],2090 µg/g lipid
same,"CED, Platelet count",[6],539 µg/g lipid
same,"CED, Red blood cell count",[6],1890 µg/g lipid
same,Emax,"Erythrocyte, F, model E2, controls vs high dose according to the fitted model, read-out: Maximum response, Red blood cell count",-13%
same,Emax,"Erythrocyte, females, controls vs high dose, fitted model, read-out: Red blood cell count, Maximum response",-12.8%
same,Emax,"Erythrocyte, males, controls vs high dose, fitted model, read-out: Red blood cell count, Maximum response",-12.5%
same,Emax,"Erythrocyte, model E4, controls vs high dose according to the fitted model, read-out: Maximum response, Red blood cell count",-12.4%
same,Emax,"F, model E2, controls vs high dose according to the fitted model, read-out: Maximum response, Hematocrit",-10.1%
same,Emax,"F, model E2, controls vs high dose according to the fitted model, read-out: Maximum response, Hemoglobin",-11.3%
same,Emax,"F, model E3, controls vs high dose according to the fitted model, read-out: Maximum response, Red cell distribution width - SD",11.1%
same,Emax,"Platelet, males, controls vs high dose, fitted model, read-out: Platelet count, Maximum response",12%
same,Emax,"Platelet, model E4, controls vs high dose according to the fitted model, read-out: Maximum response, Platelet count",12%
same,Emax,"females, controls vs high dose, fitted model, read-out: Hematocrit, Maximum response",-10%
same,Emax,"females, controls vs high dose, fitted model, read-out: Hemoglobin, Maximum response",-11.1%
same,Emax,"females, controls vs high dose, fitted model, read-out: Red cell distribution width - SD, Maximum response",11.5%
same,Emax,"males, controls vs high dose, fitted model, read-out: Hematocrit, Maximum response",-11.8%
same,Emax,"males, controls vs high dose, fitted model, read-out: Hemoglobin, Maximum response",-8.6%
same,Emax,"model E4, controls vs high dose according to the fitted model, read-out: Maximum response, Hematocrit",-11.7%
same,Emax,"model E4, controls vs high dose according to the fitted model, read-out: Maximum response, Hemoglobin",-8.59%
same,Basophils,[7],0.0%
same,Eosinophils,[7],1.2%
same,"HB, Hemoglobin",[7],165 g/L
same,"HCT, Hematocrit",[7],0.44
same,Lymphocytes,[7],88.4%
same,"MCH, Mean corpuscular hemoglobin",[7],23.1 pg
same,"MCHC, Mean corpuscular hemoglobin concentration",[7],371 g/L
same,"MCV, Mean corpuscular volume",[7],62.3 fL
same,"MPV, Mean platelet volume",[7],6.74 fL
same,Monocytes,[7],2.6%
same,Neutrophils,[7],7.8%
same,"PDW, Platelet distribution width",[7],7.26 fL
same,"PLT, Platelet count",[7],8.17e+11 L⁻¹
same,"RBC, Red cell count",[7],7.15e+12 L⁻¹
same,"WBC, Leukocyte total count",[7],1.422e+10 L⁻¹
same,Basophils,[8],0.0%
same,Eosinophils,[8],0.2%
same,"HB, Hemoglobin",[8],166 g/L
same,"HCT, Hematocrit",[8],0.45
same,Lymphocytes,[8],92.0%
same,"MCH, Mean corpuscular hemoglobin",[8],23.0 pg
same,"MCHC, Mean corpuscular hemoglobin concentration",[8],372 g/L
same,"MCV, Mean corpuscular volume",[8],61.8 fL
same,"MPV, Mean platelet volume",[8],6.72 fL
same,Monocytes,[8],2%
same,Neutrophils,[8],5.8%
same,"PDW, Platelet distribution width",[8],7.20 fL
same,"PLT, Platelet count",[8],8.05e+11 L⁻¹
same,"RBC, Red cell count",[8],7.23e+12 L⁻¹
same,"WBC, Leukocyte total count",[8],1.276e+10 L⁻¹
same,Basophils,[9],0.0%
same,Eosinophils,[9],1.6%
same,"HB, Hemoglobin",[9],165 g/L
same,"HCT, Hematocrit",[9],0.45
same,Lymphocytes,[9],88.8%
same,"MCH, Mean corpuscular hemoglobin",[9],22.9 pg
same,"MCHC, Mean corpuscular hemoglobin concentration",[9],368 g/L
same,"MCV, Mean corpuscular volume",[9],62.2 fL
same,"MPV, Mean platelet volume",[9],6.74 fL
same,Monocytes,[9],1.4%
same,Neutrophils,[9],8.2%
same,"PDW, Platelet distribution width",[9],7.32 fL
same,"PLT, Platelet count",[9],8.47e+11 L⁻¹
same,"RBC, Red cell count",[9],7.22e+12 L⁻¹
same,"WBC, Leukocyte total count",[9],1.544e+10 L⁻¹
same,Basophils,[10],0.0%
same,Eosinophils,[10],0.8%
same,"HB, Hemoglobin",[10],169 g/L
same,"HCT, Hematocrit",[10],0.46
same,Lymphocytes,[10],90.8%
same,"MCH, Mean corpuscular hemoglobin",[10],22.8 pg
same,"MCHC, Mean corpuscular hemoglobin concentration",[10],370 g/L
same,"MCV, Mean corpuscular volume",[10],61.6 fL
same,"MPV, Mean platelet volume",[10],6.72 fL
same,Monocytes,[10],1.4%
same,Neutrophils,[10],7.0%
same,"PDW, Platelet distribution width",[10],7.14 fL
same,"PLT, Platelet count",[10],8.74e+11 L⁻¹
same,"RBC, Red cell count",[10],7.4e+12 L⁻¹
same,"WBC, Leukocyte total count",[10],1.654e+10 L⁻¹
same,Basophils,[11],0.0%
same,Eosinophils,[11],1.2%
same,"HB, Hemoglobin",[11],166 g/L
same,"HCT, Hematocrit",[11],0.45
same,Lymphocytes,[11],90.6%
same,"MCH, Mean corpuscular hemoglobin",[11],23.1 pg
same,"MCHC, Mean corpuscular hemoglobin concentration",[11],371 g/L
same,"MCV, Mean corpuscular volume",[11],62.2 fL
same,"MPV, Mean platelet volume",[11],6.98 fL
same,Monocytes,[11],2.2%
same,Neutrophils,[11],6.0%
same,"PDW, Platelet distribution width",[11],7.58 fL
same,"PLT, Platelet count",[11],8.2e+11 L⁻¹
same,"RBC, Red cell count",[11],7.19e+12 L⁻¹
same,"WBC, Leukocyte total count",[11],1.448e+10 L⁻¹
same,Basophils,[12],0.0%
same,Eosinophils,[12],1.2%
same,Lymphocytes,[12],89.8%
same,"MCH, Mean corpuscular hemoglobin",[12],23.1 pg
same,"MCHC, Mean corpuscular hemoglobin concentration",[12],366 g/L
same,"MCV, Mean corpuscular volume",[12],63.2 fL
same,"MPV, Mean platelet volume",[12],6.74 fL
same,Monocytes,[12],3.2%
same,Neutrophils,[12],5.8%
same,"PDW, Platelet distribution width",[12],7.26 fL
same,"PLT, Platelet count",[12],8.69e+11 L⁻¹
same,"WBC, Leukocyte total count",[12],1.392e+10 L⁻¹
same,"HB, Hemoglobin",[13],154 g/L
same,"RBC, Red cell count",[13],6.66e+12 L⁻¹
same,"HCT, Hematocrit","females, total dose 1000 mg/kg bw, N=5, p<0.05 vs. control",0.42
same,Basophils,[14],0.0%
same,Eosinophils,[14],1.0%
same,Lymphocytes,[14],87.6%
same,"MCH, Mean corpuscular hemoglobin",[14],23.3 pg
same,"MCHC, Mean corpuscular hemoglobin concentration",[14],366 g/L
same,"MCV, Mean corpuscular volume",[14],63.7 fL
same,"MPV, Mean platelet volume",[14],6.68 fL
same,Monocytes,[14],2.2%
same,Neutrophils,[14],9.2%
same,"PDW, Platelet distribution width",[14],7.18 fL
same,"PLT, Platelet count",[14],8.28e+11 L⁻¹
same,"WBC, Leukocyte total count",[14],1.35e+10 L⁻¹
same,"HB, Hemoglobin","females, total dose 1700 mg/kg bw, N=5, p<0.001 vs. control",150 g/L
